Paper PMC2213263 (The Journal of Experimental Medicine, 2005)

System: PBMCs and HCV peptide-specific T cell lines from HCV-infected subjects
Type: cell-based, human

HSKRKCDEL
T cell response to peptide, in words: no detectable response

phytohemagglutinin
response to positive control: uniformly positive
